Measurements as given in US9182409B2, “Mass spectrometry imaging method for detecting and quantifying a target molecule in a tissue sample” (priority 2011, dated 2015).

Test: Distribution and quantification of propranolol in whole-body mouse sections by MALDI mass spectrometry imaging
Format: in vivo
Conditions: 7.5 mg/kg intravenous, 20 minutes post-injection, sagittal whole-body section, TEC-normalized
Protocol: Male Swiss mice weighing 25-40 g (Charles River, France) were used.
The animals were sacrificed by CO2 asphyxiation at 20 minutes post-injection.
The samples (control and dosed tissue) were sectioned into 20 μm-thick layers using a CM1510S cryostat (Leica Microsystems, Nanterre, France) cooled at −26° C. The sections were then deposited on conductive ITO (indium tin oxide) slides (Bruker Daltonics, Bremen, Germany).
This matrix was prepared at a concentration of 40 mg/ml in methanol/0.1% TFA (1:1, v/v). The matrix solution was deposited using the SunCollect spraying system (SunChrome, Germany).
This range of dilutions extends from 10 pmol/μl to 0.02 pmol/μl and includes seven points.
The images were obtained using an AutoFlex Speed MALDI-TOF mass spectrometer (Bruker Daltonics, Bremen, Germany) equipped with a Smartbeam laser. The data was generated in positive reflectron mode. A total of 700 spectra were obtained for each spot with a 1000 Hz laser frequency and a 300×300 μm′ image spatial resolution on a mass range of 100 Da to 1000 Da. The FlexImaging version 2.1 software was used to reconstruct the images.

SMILES: CC(C)NCC(O)COc1cccc2ccccc12 (stereo not shown) [propranolol, Propranolol]
- total quantity of the target analyte in the brain: about 5 ng
